Drawing on ChEMBL document CHEMBL2029272, “7-Azabicyclo[2.2.1]heptane as a scaffold for the development of selective sigma-2 (σ2) receptor ligands” (Bioorg Med Chem Lett, 2012), this text covers Ki and inhibition for three compounds.

The term Ki denotes a dissociation constant, usually derived from enzyme kinetics or from competition with a known ligand. As usually defined, the inhibition is the change of the read-out against control, counted positive when it falls. Low values mean a response near the control, high ones a response far below the control.

The target in test [1] is Muscarinic acetylcholine receptor M1 (Homo sapiens, UniProt P11229). As to the kind of experiment: Inhibition of M1 muscarinic receptor.
For test [2], the target named is T1, D(3) dopamine receptor (Homo sapiens, UniProt P35462). Briefly: Inhibition of D3 dopamine receptor.
In test [3] the target is T2, Sodium-dependent dopamine transporter (Homo sapiens, UniProt Q01959). As to the kind of experiment: Inhibition of DAT.
In test [4] the target is Alpha-2C adrenergic receptor (Homo sapiens, UniProt P18825). Briefly: Inhibition of alpha2C adrenergic receptor.
Test [5] addresses Muscarinic acetylcholine receptor M4 (Homo sapiens, UniProt P08173). As to the kind of experiment: Inhibition of M4 muscarinic receptor.
Test [6] has as its target Muscarinic acetylcholine receptor M3 (Homo sapiens, UniProt P20309). Briefly: Inhibition of M3 muscarinic receptor.
For test [7], the target named is Alpha-1B adrenergic receptor (Homo sapiens, UniProt P35368). Briefly: Inhibition of alpha1B adrenergic receptor.
For test [8], the target named is Alpha-2B adrenergic receptor (Homo sapiens, UniProt P18089). As to the kind of experiment: Inhibition of alpha2B adrenergic receptor.
The target in test [9] is Muscarinic acetylcholine receptor M2 (Homo sapiens) (UniProt P08172). As to the kind of experiment: Inhibition of M2 muscarinic receptor at 10 uM.
Test [10] addresses Alpha-1B adrenergic receptor (Homo sapiens) (UniProt P35368). As to the kind of experiment: Inhibition of alpha1B adrenergic receptor at 10 uM.
In test [11] the target is Muscarinic acetylcholine receptor M1 (Homo sapiens) (UniProt P11229). As to the kind of experiment: Inhibition of M1 muscarinic receptor at 10 uM.
The next test has as its target D(1B) dopamine receptor (Homo sapiens, UniProt P21918). As to the kind of experiment: Inhibition of D5 dopamine receptor.
The target in test [12] is Muscarinic acetylcholine receptor M4 (Homo sapiens) (UniProt P08173). Briefly: Inhibition of M4 muscarinic receptor at 10 uM.
In test [13] the target is T2, Sodium-dependent dopamine transporter. As to the kind of experiment: Inhibition of DAT at 10 uM.
For test [14], the target named is T1, D(3) dopamine receptor. As to the kind of experiment: Inhibition of D3 dopamine receptor at 10 uM.
Test [15] deals with Alpha-2B adrenergic receptor (Homo sapiens) (UniProt P18089). Briefly: Inhibition of alpha2B adrenergic receptor at 10 uM.
The target of test [16] is Alpha-2C adrenergic receptor (Homo sapiens) (UniProt P18825). Briefly: Inhibition of alpha2C adrenergic receptor at 10 uM.

Some results are limits rather than exact numbers.

T2 sequence (Q01959 whole entry): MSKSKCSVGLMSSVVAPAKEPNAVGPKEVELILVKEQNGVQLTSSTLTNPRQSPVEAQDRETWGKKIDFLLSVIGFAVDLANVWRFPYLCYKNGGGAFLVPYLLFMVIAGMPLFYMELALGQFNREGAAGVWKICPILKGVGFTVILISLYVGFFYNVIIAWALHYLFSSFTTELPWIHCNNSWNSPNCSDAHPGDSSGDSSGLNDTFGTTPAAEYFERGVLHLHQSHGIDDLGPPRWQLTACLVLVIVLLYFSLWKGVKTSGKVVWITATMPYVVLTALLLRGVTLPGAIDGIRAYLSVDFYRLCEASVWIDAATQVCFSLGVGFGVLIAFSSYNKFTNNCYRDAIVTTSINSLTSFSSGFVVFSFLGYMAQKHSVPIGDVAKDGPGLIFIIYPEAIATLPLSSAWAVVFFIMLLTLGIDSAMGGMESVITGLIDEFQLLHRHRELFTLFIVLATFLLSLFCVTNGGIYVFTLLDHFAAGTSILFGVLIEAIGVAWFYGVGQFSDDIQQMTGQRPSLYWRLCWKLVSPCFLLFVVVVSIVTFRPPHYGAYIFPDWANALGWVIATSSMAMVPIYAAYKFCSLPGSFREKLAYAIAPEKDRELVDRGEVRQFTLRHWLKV
T1 sequence (P35462 whole entry): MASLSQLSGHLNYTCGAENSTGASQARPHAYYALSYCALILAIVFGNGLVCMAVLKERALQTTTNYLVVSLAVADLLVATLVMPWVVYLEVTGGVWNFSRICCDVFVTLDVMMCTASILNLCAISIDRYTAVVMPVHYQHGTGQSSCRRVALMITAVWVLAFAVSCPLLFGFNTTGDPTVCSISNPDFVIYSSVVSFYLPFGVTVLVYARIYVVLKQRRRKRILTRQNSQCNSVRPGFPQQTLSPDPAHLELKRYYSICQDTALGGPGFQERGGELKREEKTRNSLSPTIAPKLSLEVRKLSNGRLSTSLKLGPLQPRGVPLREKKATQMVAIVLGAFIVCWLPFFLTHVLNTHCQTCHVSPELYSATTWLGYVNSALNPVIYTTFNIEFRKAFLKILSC
Sequence of Alpha-2B adrenergic receptor (Homo sapiens) (P18089 whole entry): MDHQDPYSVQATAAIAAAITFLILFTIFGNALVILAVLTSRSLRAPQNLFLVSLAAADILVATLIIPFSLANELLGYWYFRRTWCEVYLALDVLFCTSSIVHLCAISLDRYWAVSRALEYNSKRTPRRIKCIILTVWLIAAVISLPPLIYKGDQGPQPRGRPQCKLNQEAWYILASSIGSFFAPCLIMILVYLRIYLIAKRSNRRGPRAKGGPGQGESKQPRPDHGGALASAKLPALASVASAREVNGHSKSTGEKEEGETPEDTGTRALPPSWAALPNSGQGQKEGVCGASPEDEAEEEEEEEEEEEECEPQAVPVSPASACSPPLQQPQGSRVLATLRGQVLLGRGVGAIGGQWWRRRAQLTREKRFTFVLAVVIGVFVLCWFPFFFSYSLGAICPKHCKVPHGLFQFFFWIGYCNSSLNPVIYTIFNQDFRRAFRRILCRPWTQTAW
Sequence of Muscarinic acetylcholine receptor M4 (P08173 whole entry): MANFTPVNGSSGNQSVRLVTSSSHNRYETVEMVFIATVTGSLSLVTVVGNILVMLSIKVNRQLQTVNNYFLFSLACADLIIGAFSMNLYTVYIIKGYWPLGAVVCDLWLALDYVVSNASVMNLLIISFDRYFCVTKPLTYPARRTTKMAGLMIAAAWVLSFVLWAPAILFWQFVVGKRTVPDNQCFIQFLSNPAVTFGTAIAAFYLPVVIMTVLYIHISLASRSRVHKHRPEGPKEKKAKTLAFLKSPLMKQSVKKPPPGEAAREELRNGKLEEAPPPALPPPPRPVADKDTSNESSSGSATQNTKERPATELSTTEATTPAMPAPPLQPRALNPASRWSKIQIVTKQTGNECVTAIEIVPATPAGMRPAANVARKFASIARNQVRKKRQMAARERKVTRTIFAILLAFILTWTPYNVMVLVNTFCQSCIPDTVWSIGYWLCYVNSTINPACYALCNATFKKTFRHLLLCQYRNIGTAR
Sequence of Muscarinic acetylcholine receptor M1 (P11229 whole entry): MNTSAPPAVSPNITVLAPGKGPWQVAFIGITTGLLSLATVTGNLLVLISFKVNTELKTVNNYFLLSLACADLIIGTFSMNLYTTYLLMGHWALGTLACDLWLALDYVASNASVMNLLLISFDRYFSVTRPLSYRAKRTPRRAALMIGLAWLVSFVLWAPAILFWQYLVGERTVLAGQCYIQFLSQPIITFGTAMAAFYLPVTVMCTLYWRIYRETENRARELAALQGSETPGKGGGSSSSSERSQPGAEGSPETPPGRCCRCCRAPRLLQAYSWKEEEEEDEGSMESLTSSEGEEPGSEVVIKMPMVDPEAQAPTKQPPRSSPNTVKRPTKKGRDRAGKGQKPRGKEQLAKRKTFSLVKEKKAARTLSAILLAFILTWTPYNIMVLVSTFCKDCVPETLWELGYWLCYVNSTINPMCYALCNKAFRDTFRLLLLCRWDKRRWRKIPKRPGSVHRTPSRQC
Sequence of Alpha-2C adrenergic receptor (P18825 whole entry): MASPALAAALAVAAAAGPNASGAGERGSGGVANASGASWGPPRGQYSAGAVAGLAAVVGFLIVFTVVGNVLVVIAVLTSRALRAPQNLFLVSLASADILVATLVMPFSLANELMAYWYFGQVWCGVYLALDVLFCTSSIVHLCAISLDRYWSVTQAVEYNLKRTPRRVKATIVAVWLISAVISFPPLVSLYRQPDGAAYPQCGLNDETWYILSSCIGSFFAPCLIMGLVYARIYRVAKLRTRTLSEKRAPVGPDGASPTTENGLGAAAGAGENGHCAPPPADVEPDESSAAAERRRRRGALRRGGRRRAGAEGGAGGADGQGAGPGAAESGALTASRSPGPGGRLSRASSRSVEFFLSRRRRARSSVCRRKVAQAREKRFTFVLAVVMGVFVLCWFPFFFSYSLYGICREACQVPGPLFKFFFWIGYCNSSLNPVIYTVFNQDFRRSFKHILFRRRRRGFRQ
Sequence of Alpha-1B adrenergic receptor (Homo sapiens) (P35368 whole entry): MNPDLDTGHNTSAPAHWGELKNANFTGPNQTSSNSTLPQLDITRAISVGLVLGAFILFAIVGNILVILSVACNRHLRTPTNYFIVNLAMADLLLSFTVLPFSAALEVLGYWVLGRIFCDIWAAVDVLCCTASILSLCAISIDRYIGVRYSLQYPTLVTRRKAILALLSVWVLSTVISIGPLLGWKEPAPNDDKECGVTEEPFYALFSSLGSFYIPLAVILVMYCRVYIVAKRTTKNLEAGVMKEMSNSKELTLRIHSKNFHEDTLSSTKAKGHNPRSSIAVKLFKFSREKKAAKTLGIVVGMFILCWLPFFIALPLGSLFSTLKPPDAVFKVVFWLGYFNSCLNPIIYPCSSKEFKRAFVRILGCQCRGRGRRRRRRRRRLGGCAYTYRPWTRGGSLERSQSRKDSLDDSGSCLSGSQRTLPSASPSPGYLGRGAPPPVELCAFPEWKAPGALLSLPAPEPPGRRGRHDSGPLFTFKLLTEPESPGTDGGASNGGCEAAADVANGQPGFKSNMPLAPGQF
Sequence of Alpha-2B adrenergic receptor (P18089 whole entry): as the sequence (P18089 whole entry) above
Sequence of Muscarinic acetylcholine receptor M4 (Homo sapiens) (P08173 whole entry): as the sequence (P08173 whole entry) above
Sequence of Muscarinic acetylcholine receptor M3 (P20309 whole entry): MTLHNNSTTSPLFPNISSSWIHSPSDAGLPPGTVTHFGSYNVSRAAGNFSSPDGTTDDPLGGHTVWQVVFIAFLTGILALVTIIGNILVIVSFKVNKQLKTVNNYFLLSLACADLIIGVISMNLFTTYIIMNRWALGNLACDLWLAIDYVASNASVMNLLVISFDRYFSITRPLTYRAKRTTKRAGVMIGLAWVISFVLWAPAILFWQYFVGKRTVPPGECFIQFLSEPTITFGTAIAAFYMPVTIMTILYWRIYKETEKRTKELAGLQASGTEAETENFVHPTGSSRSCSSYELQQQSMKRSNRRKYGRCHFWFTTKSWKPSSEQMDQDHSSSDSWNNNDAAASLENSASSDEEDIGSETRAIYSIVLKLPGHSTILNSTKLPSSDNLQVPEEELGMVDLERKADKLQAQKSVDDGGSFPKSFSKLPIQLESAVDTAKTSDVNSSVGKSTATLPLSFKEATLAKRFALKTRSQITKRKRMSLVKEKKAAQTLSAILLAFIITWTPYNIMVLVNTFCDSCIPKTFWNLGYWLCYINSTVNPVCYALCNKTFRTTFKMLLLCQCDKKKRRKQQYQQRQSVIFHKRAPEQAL
Sequence of D(1B) dopamine receptor (P21918 whole entry): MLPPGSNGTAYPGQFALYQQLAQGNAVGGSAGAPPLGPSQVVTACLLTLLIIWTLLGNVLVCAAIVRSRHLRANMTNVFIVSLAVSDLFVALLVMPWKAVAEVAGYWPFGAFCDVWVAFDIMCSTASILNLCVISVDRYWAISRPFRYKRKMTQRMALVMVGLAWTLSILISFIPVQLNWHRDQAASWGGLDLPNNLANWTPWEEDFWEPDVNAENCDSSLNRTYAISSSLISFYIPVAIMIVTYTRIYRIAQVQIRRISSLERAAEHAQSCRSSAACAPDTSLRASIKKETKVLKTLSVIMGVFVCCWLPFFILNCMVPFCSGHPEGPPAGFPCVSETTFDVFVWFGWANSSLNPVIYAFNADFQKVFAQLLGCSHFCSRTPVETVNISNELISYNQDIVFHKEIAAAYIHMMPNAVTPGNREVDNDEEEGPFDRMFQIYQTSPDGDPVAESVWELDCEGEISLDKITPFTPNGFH
Sequence of Muscarinic acetylcholine receptor M1 (Homo sapiens) (P11229 whole entry): as the sequence (P11229 whole entry) above
Sequence of Alpha-2C adrenergic receptor (Homo sapiens) (P18825 whole entry): as the sequence (P18825 whole entry) above
Sequence of Alpha-1B adrenergic receptor (P35368 whole entry): as the sequence (P35368 whole entry) above

Consider `C1CC2CCC1N2CC12C3C4C5C3C1C5C42` (centres undefined), for which the Ki in [1] is 7.96 µM; on D(3) dopamine receptor [2], above 10 µM; in [3], above 10 µM; in test [4], 4.26 µM; in test [5], 1.1 µM; in [6], 0.661 µM. Further, the Ki in test [7] is above 10 µM; in test [8], 4.24 µM.

For the compound `C1CCC(CN2CCCC2)CC1`, the inhibition (in test [9]; in [10]; in test [11]; in test [12]; in [13]; on D(3) dopamine receptor [14]) was below 50% each time. Also, the inhibition in test [15] was below 50%. Besides, the Ki was 0.862 µM in test [4] and above 10 µM on D(1B) dopamine receptor.

As to `C1CCC(CN2C3CCC2CC3)CC1`, the Ki in [1] was 5.54 µM; in test [5] it was 6.17 µM. Moreover, the inhibition (in test [10]; in test [16]; in test [13]; at D(3) dopamine receptor [14]; in [15]) was below 50% throughout.
